For data set [1], the system named is osteolytic lesion in the right iliac bone. In words: 18F-FDG PET/CT of a multiple myeloma patient. Particulars: same osteolytic lesion in right iliac bone of MM patient. In kind it is in vivo, human.
For data set [2] the following is noted: reported for other copper radiopharmaceuticals; cited from earlier work.
Data set [3] deals with CD-1 mice. The experiment in a line: Non-GLP tolerability and toxicity study of Cu-LLP2A V2, single IV bolus. Type of data set: in vivo. As for the experimental part:
To evaluate the tolerability and toxicity of Cu-CB-TE1A1P-PEG4-LLP2A V2 (Cu-LLP2A V2) tracer/imaging agent when administered once on Day 1 by intravenous (IV) bolus administration to male and female CD-1 mice, the following experiments were conducted. On Day 2 after administering the tracer/imaging agent, the first 10 animals/sex/group (Main Study) were sacrificed and necropsied. The remaining 5 animals/sex/group (Recovery) were weighed and observed for the remainder of the study and necropsied on Day 15.
Each treatment group (Groups 1-2) was comprised of […] CD-1 mice. Mice were administered either vehicle or 0.0604 mg/mouse Cu-LLP2A V2 (Groups 1 and 2, respectively) once on Day 1 via IV bolus injection at a dose volume of 0.125 mL/mouse. Physical examinations were recorded at the time of randomization. Clinical observations were recorded daily. Body weight measurements were taken for randomization and daily. Blood samples for the evaluation of hematology and clinical chemistry were collected on Day 2 (Main Study) and Day 15 (Recovery). Following blood sample collections, a necropsy was conducted. Protocol-specified tissues were collected and evaluated grossly, select organs were weighed, and tissues were fixed for microscopic evaluation. Tissues were subsequently processed and evaluated microscopically.

`OC[C@H]1OC(O)[C@H]([18F])[C@@H](O)[C@@H]1O` (stereo partly drawn) [^18F-FDG, [^18F]fluorodeoxyglucose]: in data set [1], the “SUL-peak (per PERCIST) in lesion” value is given as 2.1 and the SUV-max in lesion was 2.9.

For the compound `CN=C([S-])N/N=C(C)/C(C)=N/NC([S-])=NC.[64Cu+2]` [^64Cu-ATSM], the Effective dose in data set [2] is 0.036 mSv/MBq.

Take “Cu-CB-TE1A1P-PEG4-LLP2A V2 [Cu-LLP2A V2]”: the Survival result in data set [3] (0.0604 mg/mouse IV, until scheduled sacrifice (Day 2 or Day 15)) is “All animals survived”. The Tolerability entry in data set [3] (single IV injection of 0.0604 mg/mouse, male and female CD-1 mice) was “well tolerated”. Besides, the “NOEL (No Observable Effect Level)” value in data set [3] (single IV injection, male and female CD-1 mice) is 0.0604 mg/mouse.

The values are drawn from patent US20260077072A1, “METHODS AND COMPOSITIONS FOR IMAGING MALIGNANCIES IN THE BONE MARROW” (Washington University, priority 2022, published 2026).
